Experimental data taken from paper PMC13429874, “ABHD2 activity is not required for the non-genomic action of progesterone on human sperm” (Human Reproduction (Oxford, England), 2026).
Values belong to the molecule of their own block, whether it stands above or below them.

How the values were obtained:
[1] = target: T1, full-length human ABHD2 (ABHD2^FL) (Homo sapiens, UniProt P08910); assay: ABHD2^FL enzymatic activity assay with resorufin butyrate (RB) substrate; type: biochemical
T1 construct: TEV site-eGFP-8xHis (C, cleaved yes); made in house; host or cells: SF9 insect cells (baculovirus)
T1 sequence (P08910 1-425): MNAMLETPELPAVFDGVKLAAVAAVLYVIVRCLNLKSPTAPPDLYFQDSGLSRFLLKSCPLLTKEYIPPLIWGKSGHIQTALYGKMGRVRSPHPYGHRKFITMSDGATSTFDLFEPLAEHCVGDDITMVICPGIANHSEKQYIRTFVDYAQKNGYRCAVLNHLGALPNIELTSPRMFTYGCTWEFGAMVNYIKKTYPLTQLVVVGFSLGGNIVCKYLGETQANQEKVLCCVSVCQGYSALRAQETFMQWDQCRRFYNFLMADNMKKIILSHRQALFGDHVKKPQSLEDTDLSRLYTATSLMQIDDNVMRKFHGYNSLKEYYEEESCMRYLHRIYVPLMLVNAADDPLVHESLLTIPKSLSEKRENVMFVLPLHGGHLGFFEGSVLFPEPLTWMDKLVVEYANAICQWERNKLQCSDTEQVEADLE

[2] = target: T1, full-length human ABHD2 (ABHD2^FL); assay: ABHD2^FL enzymatic activity assay with 7-HCA substrate; type: biochemical
ABHD2^L33–E425 [3] = target: T2, ABHD2^L33–E425 (Homo sapiens, UniProt P08910); assay: ABHD2^L33-E425 fluorometric enzymatic activity assay with 7-HCA substrate; type: biochemical
T2 construct: expression for ABHD2 amino acids L33–E425, in which a predicted transmembrane domain (amino acids 1–32) is removed; His6-FLAG (N); made in house; host or cells: E. coli BL21(DE3)-R3-pRARE2
T2 sequence (P08910 33-425): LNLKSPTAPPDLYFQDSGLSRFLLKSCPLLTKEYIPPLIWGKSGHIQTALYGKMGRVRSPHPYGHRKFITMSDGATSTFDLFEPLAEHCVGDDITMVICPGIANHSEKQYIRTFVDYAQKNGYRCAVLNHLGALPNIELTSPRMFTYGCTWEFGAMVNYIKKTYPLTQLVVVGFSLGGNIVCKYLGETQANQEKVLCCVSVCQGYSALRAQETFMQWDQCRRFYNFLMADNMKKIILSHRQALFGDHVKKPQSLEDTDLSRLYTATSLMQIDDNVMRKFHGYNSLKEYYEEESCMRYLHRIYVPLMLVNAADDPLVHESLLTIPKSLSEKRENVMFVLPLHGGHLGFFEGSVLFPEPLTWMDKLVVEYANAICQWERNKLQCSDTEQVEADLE

ABHD2^L33–E425 [4] = target: T2, ABHD2^L33–E425; assay: Differential scanning fluorimetry (DSF) with purified ABHD2^L33–E425; type: binding
human ABHD10 = target: T3, human ABHD10 (Homo sapiens, UniProt Q9NUJ1); assay: ABHD10 colorimetric assay with p-nitrophenyl butyrate; type: biochemical; conditions: 10 µM compound, 500 µM p-NPB
T3 construct: Constructs encoding amino acids T53—N306 of human ABHD10; His6-TEV site (N); made in house; host or cells: E. coli
T3 sequence (Q9NUJ1 53-306): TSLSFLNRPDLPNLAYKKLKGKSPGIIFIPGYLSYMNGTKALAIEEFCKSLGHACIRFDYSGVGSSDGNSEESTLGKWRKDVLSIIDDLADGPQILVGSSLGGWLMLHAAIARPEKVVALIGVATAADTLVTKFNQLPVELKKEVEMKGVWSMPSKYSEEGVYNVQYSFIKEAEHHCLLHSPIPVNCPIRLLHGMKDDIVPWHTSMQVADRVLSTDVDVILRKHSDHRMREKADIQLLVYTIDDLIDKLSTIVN
Protocol: (§1) Enzymatic activities of ABHD10 and ABHD11 were measured in a colorimetric assay using p-nitrophenyl butyrate (p-NPB) as substrate. Enzymes at 1500 nM ABHD10 and 125 nM ABHD11 in 20 mM HEPES pH 7.5, 150 mM NaCl, and 2% (v/v) DMSO were pre-incubated in 96-well plates with 50 µM test compound for 30 min at 4°C. Plates were then equilibrated at 37°C for 2 min, and reactions were initiated by adding 160 µl of pre-warmed substrate solution (same buffer with 625 µM p-NPB) to a total volume of 200 µl, yielding final assay concentrations of 300 nM ABHD10, 25 nM ABHD11, and 500 µM pNPB. The substrate solution was prepared immediately before addition to the enzyme mixtures. Absorbance at 405 nm was recorded on a SpectraMax iD3 plate reader (Molecular Devices) for 20 min with continuous monitoring at 30 s intervals.

human ABHD11 = target: T4, human ABHD11 (Homo sapiens, UniProt Q8NFV4); assay: ABHD11 colorimetric assay with p-nitrophenyl butyrate; type: biochemical; conditions: 10 µM compound, 500 µM p-NPB
T4 construct: residues V34—V315 of human ABHD11; His6-TEV site (N); made in house; host or cells: E. coli
T4 sequence (Q8NFV4 25-306 limits assumed): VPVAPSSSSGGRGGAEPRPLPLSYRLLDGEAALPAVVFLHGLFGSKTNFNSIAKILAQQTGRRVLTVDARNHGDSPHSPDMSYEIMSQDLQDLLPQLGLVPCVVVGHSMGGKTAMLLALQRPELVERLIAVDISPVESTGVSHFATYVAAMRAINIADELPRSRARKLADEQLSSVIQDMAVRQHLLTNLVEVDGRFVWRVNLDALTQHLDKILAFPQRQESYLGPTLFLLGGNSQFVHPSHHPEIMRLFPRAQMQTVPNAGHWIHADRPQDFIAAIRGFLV
Protocol: as §1

ABHD2^FL = target: T5, ABHD2^FL (Homo sapiens, UniProt P08910); assay: Differential scanning fluorimetry (DSF) with purified ABHD2^FL; type: binding; conditions: 20 µM
T5 construct: TEV site-eGFP-8xHis (C, cleaved yes); made in house; host or cells: SF9 insect cells (baculovirus)
T5 sequence (P08910 1-425): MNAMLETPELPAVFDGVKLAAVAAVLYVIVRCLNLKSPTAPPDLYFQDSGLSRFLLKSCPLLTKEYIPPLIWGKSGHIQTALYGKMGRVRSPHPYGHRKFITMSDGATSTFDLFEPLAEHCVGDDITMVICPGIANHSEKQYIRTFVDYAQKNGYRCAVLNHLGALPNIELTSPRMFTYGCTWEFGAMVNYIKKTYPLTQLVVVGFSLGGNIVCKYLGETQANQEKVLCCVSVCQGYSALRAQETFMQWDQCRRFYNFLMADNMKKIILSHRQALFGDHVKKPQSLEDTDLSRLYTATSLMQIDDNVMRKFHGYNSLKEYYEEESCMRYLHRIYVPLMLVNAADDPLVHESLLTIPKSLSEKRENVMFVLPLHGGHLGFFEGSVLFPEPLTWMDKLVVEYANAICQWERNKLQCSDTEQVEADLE

human sperm = assay: Sperm hyperactivation assay (CASA); type: cell-based; conditions: 3 µM, 30 min
Protocol: Sperm hyperactivation was assessed in human sperm purified by density gradient centrifugation. Semen samples (n = 7) were allowed to liquefy for 15–30 min at 37°C, and up to 2 ml of liquified semen was layered onto a two-step GM501 gradient system (45%/90%; Gynemed; Sierksdorf, Germany) pre-equilibrated at 37°C. Gradients were centrifuged for 20 min at 400 × g (no break). The 90% pellet was collected, washed in SpermActive medium (Gynemed; composition per manufacturer: NaCl, KCl, MgSO4.7H2O, KH2PO4, 1.77 mM CaCl2.2H2O, D(+)-glucose anhydrous, sodium pyruvate, sodium lactate, EDTA, alanyl-glutamine, essential and non-essential amino acids, 25.71 mM NaHCO3, 15 mM HEPES, 5 g/l human serum albumin, 10 mg/l gentamicin, and phenol red), and incubated for at least 2 h at 37°C, 5% CO2.
For compound testing, sperm suspensions with 7.5 × 10^6 sperm/ml in SpermActive were treated with either DMSO (vehicle) or 10 µM test compound. For basal and induced hyperactivation conditions, DMSO or progesterone (3 µM), respectively, was added. Samples were incubated for 30 min at 37°C, 5% CO2, before motility analysis.
Motility was analyzed using a CASA system (CEROSII^TM Animal Motility, software version 1.16; Hamilton Thorne, Beverly, MA, USA), mounted on an Axiolab 5 microscope (Zeiss, Germany), equipped with a TPi-SX Thermal Plate (Tokai Hit; Shizuoka-ken, Japan) and a JAI CM-040-GE CCD camera (JAI; Tokyo, Japan). Leja slides (20 µm chamber depth; Leja Products B.V., Nieuw-Vennep, The Netherlands) were pre-warmed to 37°C, cleaned with lens paper, and loaded by capillary action with 6 µl sperm suspension; capillary correction was set to 1.3. Sperm tracks were recorded at 37°C using a 10× negative-phase objective, acquiring 60 frames at 60 Hz with 4 ms exposure and gain set to 600. For each sample and condition, 300–500 motile sperm from at least 10 non-overlapping fields were analyzed. Hyperactive sperm were identified using the SORT function with the following Boolean argument: VCL > 150 µm/s and LIN < 50% and ALH > 7 µm. For each sample and condition, the percentage of hyperactive sperm was normalized to the percentage of motile sperm, and the mean of two technical duplicates was reported.
Statistical analysis was performed using GraphPad Prism 10 for Windows (version 10.6.1). Data normality was assessed using Shapiro–Wilk test. Differences between basal and induced hyperactivation were evaluated using a paired t-test, with effective pairing confirmed across all comparisons. P < 0.05 was considered statistically significant.

[5] = target: the molecule itself; assay: SEC; HiLoad 16/600 Superdex 75 pg, final purification step after nickel affinity; pure fractions concentrated in 20 mM HEPES pH 8, 500 mM NaCl, 10% (v/v) glycerol, 1 mM TCEP

Molecule: CCCC(=O)Oc1ccc2nc3ccc(=O)cc-3oc2c1 [RB, resorufin butyrate]
Km ([1]; 25 nM ABHD2^FL, read-out: Km of substrate hydrolysis by ABHD2^FL): 23 µM

Molecule: CCCCCCCCCCC[C@@H](C[C@@H]1OC(=O)[C@H]1CCCCCC)OC(=O)[C@H](CC(C)C)NC=O [Orlistat]
IC50 ([2]; 5 µM 7-HCA, read-out: IC50, ABHD2^FL, 7-HCA assay): 969 nM | IC50 ([1]; 15 µM RB): 305 nM

B1: Truncated ABHD2 (ABHD2^L33–E425) (domain or fragment, human, UniProt P08910 33-425, looked up)
chain: LNLKSPTAPPDLYFQDSGLSRFLLKSCPLLTKEYIPPLIWGKSGHIQTALYGKMGRVRSPHPYGHRKFITMSDGATSTFDLFEPLAEHCVGDDITMVICPGIANHSEKQYIRTFVDYAQKNGYRCAVLNHLGALPNIELTSPRMFTYGCTWEFGAMVNYIKKTYPLTQLVVVGFSLGGNIVCKYLGETQANQEKVLCCVSVCQGYSALRAQETFMQWDQCRRFYNFLMADNMKKIILSHRQALFGDHVKKPQSLEDTDLSRLYTATSLMQIDDNVMRKFHGYNSLKEYYEEESCMRYLHRIYVPLMLVNAADDPLVHESLLTIPKSLSEKRENVMFVLPLHGGHLGFFEGSVLFPEPLTWMDKLVVEYANAICQWERNKLQCSDTEQVEADLE
notes: human ABHD2 (alpha/beta hydrolase domain-containing protein 2), Uniprot ID P08910, amino acids L33-E425; the predicted transmembrane domain (amino acids 1-32) is removed; No tag cleavage is described; Further construct details may be in the Supplementary Materials and Methods; also called ABHD2^L33-425; ABHD2 amino acids L33–E425; source: E. coli BL21(DE3)-R3-pRARE2, purified (nickel-sepharose, …)
stoichiometry N [5]: 4

The next lines start with results.

IC50 ([2]; Supplementary Table S2, read-out: IC50 measured in ABHD2^FL in the 7-HCA Assay): 490 nM | IC50 (ABHD2^L33–E425 [3]; 10 nM enzyme, 10 µM 7-HCA, read-out: IC50 for ABHD2^L33-425, fluorometric assay using 7-HCA): 320 nM | effect on melting temperature / thermal stability of ABHD2^L33-E425 (DSF), in words (ABHD2^L33–E425 [4]; 10 µM compound, 30 min pre-incubation): increased melting temperature | ΔTm shift for ABHD2^L33-425 determined by DSF (ABHD2^L33–E425 [4]; purified protein): 13 °C | inhibition of ABHD10 (human ABHD10): no detectable inhibition | inhibition of ABHD11 (human ABHD11): no detectable inhibition
Molecule: O=C(N1CCCCC1)N1CCCCC1c1ccccc1 (stereo not drawn) [Compound 2]

effect on enzymatic activity of purified ABHD2^FL ([2]; 7-HCA and RB substrates (Suppl. Fig. S4A,B), weak effects at ≥5 µM): did not alter | effect on enzymatic activity of purified ABHD2^L33–E425 (ABHD2^L33–E425 [3]; 5 µM steroid or triterpenoid, 300 nM 7-HCA): did not alter | effect on heat-induced denaturation of ABHD2^L33–E425 (DSF binding) (ABHD2^L33–E425 [4]; 40 µM steroid, 30 min pre-incubation): did not affect | effect on heat-induced denaturation of ABHD2^FL (DSF binding) (ABHD2^FL): did not affect
Molecule: CC(=O)[C@H]1CC[C@H]2[C@@H]3CCC4=CC(=O)CC[C@]4(C)[C@H]3CC[C@]12C [progesterone]
fraction of hyperactivated sperm upon stimulation (human sperm): increased
